# According to ChEMBL document CHEMBL1201862, “PubChem BioAssay data set” (2004):
# Calls of active or inactive are those of the source. Cut-off read from the data, not from the text of the source, for most assays here: actives have a measured EC50 and inactives only a lower limit.
# Tests used:
# [1] = molecular target: T1, Zinc finger protein mex-5 (Caenorhabditis elegans, UniProt Q9XUB2); test: MEX-5/TCR-2 RNA interaction inhibitors, dose response, biochemical, C. elegans, fluorescence polarization (AID 1960)
# T1 sequence (Q9XUB2 whole entry): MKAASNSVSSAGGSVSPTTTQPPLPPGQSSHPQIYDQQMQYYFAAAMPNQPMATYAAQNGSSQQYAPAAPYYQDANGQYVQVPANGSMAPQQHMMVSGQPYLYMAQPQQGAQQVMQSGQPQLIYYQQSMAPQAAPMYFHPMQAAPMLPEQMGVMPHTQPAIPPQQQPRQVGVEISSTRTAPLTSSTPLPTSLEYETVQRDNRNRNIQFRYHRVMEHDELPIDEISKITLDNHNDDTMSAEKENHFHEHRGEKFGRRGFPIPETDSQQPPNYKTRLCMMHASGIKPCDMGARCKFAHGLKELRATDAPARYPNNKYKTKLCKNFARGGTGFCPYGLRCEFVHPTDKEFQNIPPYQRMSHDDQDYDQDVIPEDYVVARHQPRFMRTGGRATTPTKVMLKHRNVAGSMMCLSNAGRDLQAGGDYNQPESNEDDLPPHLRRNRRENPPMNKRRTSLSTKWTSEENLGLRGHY
# [2] = molecular target: T2, Sentrin-specific protease 1 (Homo sapiens, UniProt Q9P0U3); test: potency of human SENP1 inhibitors, dose response, biochemical, kinetic FRET (AID 651697); format: functional; conditions: read-out: IC50_Mean
# T2 sequence (Q9P0U3 whole entry): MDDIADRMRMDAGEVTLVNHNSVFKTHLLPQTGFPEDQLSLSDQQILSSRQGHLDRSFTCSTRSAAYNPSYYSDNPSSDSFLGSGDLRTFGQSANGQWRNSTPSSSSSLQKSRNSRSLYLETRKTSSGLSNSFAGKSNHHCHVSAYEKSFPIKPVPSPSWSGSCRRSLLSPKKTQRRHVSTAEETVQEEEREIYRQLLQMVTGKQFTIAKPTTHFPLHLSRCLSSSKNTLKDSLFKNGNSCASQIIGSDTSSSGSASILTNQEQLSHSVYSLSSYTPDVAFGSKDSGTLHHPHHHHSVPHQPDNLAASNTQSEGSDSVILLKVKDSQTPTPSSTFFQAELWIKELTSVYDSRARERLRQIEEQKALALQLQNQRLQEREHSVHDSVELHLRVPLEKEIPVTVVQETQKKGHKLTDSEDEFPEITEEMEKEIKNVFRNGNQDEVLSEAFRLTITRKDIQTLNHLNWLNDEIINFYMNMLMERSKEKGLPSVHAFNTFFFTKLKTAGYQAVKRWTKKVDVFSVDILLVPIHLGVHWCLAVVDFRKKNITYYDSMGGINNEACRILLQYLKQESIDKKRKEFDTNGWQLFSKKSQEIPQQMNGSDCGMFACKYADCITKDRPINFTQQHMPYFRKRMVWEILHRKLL
# [3] = molecular target: T2, Sentrin-specific protease 1; test: Dose response confirmation of small molecule inhibitors of the catalytic domain of the SUMO protease, SENP1 in a FRET assay.; format: functional; conditions: read-out: IC50_Mean
# [4] = molecular target: T3, RNA-binding protein pos-1 (Caenorhabditis elegans, UniProt G5EF15); test: inhibitors of POS-1/mex-3 RNA binding, dose response, biochemical, fluorescence polarization (AID 1964);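 note: purified POS-1 fused to maltose binding protein made in E. coli; potency of compounds blocking POS-1 binding to fluorescent RNA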
# T3 sequence (G5EF15 whole entry): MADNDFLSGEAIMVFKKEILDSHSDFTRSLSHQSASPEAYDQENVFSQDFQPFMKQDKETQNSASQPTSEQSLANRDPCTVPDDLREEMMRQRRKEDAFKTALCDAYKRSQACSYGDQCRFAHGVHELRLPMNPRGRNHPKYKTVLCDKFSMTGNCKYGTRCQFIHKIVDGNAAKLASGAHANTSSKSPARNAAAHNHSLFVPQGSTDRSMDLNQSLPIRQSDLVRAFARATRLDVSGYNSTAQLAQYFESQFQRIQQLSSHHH
# [5] = molecular target: Long-chain-fatty-acid--AMP ligase FadD28 (Mycobacterium tuberculosis, UniProt P9WQ59); test: Fluorescence polarization aasay to screen for inhibitors that compete for the binding of FadD28 to a bisubstrate Measured in Biochemical System Using Plate Reader - 2147-01_Inhibitor_Dose_CherryPick_Activity.; format: functional, Mycobacterium tuberculosis H37Rv
# [6] = molecular target: 72 kDa type IV collagenase (Homo sapiens, UniProt P08253); test: Dose Response validation of uHTS RPN11 inhibitor hits using a MMP-2 Fluorescence assay.; format: functional
# [7] = molecular target: 26S proteasome non-ATPase regulatory subunit 14 (Homo sapiens, UniProt O00487); test: inhibition of proteasome subunit RPN11 – biochemical, fluorescence polarization, uHTS hits, confirmation (AID 602368); format: functional
# Prothrombin = Prothrombin (Bos taurus, UniProt P00735); test: thrombin inhibition, dose response, biochemical, fluorescence polarization, uHTS hits (AID 602369); format: functional
# Protein Wnt-3a = Protein Wnt-3a (Mus musculus, UniProt P27467); test: Wnt3a-driven reporter signaling inhibition, dose response, selectivity assay for Gli-SUFU antagonist project, Wnt-LIGHT cells, luminescence (AID 651570); format: functional; conditions: read-out: IC50_Mean;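 note: Wnt-LIGHT reporter cells stimulated with conditioned medium from Wnt3a-producing cells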
# BJ [8] = test: cells; format: functional, cell-based; conditions: Homo sapiens
# cells [9] = format: functional, cell-based
# [10] = Luminescence Cell-Based Dose Response HTS to Identify Inhibitors of 5'UTR Stem-Loop Driven Prion Protein mRNA Translation in H4 Neuroglioblastoma Cells. [Related pubchem assays: 1827 (Project Summary), 1813 (Primary HTS)]; format: functional
# BJ [11] = test: cytotoxicity toward BJ-TERT-LT-ST fibroblasts, dose response, cell-based, RAS-independent, luminescence (AID 1935); format: functional; conditions: Homo sapiens;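 note: BJ fibroblasts immortalized with TERT plus LT and ST oncogenes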
# BJ [12] = test: cytotoxicity toward BJ-TERT fibroblasts, dose response, cell-based, RAS-independent, luminescence (AID 1933); format: functional; conditions: Homo sapiens
# BJ [13] = test: cytotoxicity toward Ras-transformed BJeLR fibroblasts, dose response, cell-based, alamar blue fluorescence, cherrypicked samples (AID 2631); format: functional; conditions: Homo sapiens;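 note: confirmatory dose-response assay in RAS-dependent BJ fibroblasts engineered with TERT, LT and ST, with cytotoxicity read by fluorescence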
# [14] = inhibitors of SNCA 5'UTR-driven reporter translation, confirmation, H4 neuroglioma cells, luminescence (AID 1988); format: functional, cell-based
# [15] = inhibitors of firefly luciferase expression or activity, dose response, H4 neuroglioma cells, luminescence (AID 1990); format: functional, cell-based
# INS1 = test: beta cell apoptosis inhibitors, cytokine rescue, dose response, luminescence, retest (AID 449756); format: functional, cell-based; conditions: Rattus norvegicus;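 note: cell death triggered by IL-1 beta plus TNF-alpha plus IFN-gamma mixture; protective hits raise ATP signal compared with cytokine alone wells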
# cells [16] = format: functional, cell-based; remark: listed apart in the source
# [17] = cytotoxicity toward DRD oncogenic fibroblasts, dose response, cell-based, non-viral oncogenic, luminescence (AID 1934); format: functional; conditions: Homo sapiens
# Vero = Vero cell cytotoxicity, cytotoxicity control for flavivirus capping enzyme inhibitors (AID 588742); format: functional; conditions: Chlorocebus sabaeus
# [18] = molecular target: Photoreceptor-specific nuclear receptor (Homo sapiens, UniProt Q9Y5X4); format: functional, cell-based;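 note: CHO-S cells with Gal4-NCOR and VP16-NR2E3 two-hybrid luciferase reporter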
# Chain of Photoreceptor-specific nuclear receptor (Q9Y5X4 whole entry, the tested form may be a part): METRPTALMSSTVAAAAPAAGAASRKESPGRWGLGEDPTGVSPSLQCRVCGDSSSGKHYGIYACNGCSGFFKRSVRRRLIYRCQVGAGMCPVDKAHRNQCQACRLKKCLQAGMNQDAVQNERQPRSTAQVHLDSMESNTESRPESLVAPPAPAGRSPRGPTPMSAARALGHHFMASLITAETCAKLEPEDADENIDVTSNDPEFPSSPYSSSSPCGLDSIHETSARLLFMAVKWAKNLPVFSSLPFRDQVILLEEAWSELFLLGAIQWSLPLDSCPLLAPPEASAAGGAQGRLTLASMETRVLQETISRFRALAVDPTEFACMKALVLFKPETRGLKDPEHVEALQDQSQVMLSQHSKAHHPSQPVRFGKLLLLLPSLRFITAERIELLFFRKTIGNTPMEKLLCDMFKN
# Chain of Long-chain-fatty-acid--AMP ligase FadD28 (P9WQ59 whole entry): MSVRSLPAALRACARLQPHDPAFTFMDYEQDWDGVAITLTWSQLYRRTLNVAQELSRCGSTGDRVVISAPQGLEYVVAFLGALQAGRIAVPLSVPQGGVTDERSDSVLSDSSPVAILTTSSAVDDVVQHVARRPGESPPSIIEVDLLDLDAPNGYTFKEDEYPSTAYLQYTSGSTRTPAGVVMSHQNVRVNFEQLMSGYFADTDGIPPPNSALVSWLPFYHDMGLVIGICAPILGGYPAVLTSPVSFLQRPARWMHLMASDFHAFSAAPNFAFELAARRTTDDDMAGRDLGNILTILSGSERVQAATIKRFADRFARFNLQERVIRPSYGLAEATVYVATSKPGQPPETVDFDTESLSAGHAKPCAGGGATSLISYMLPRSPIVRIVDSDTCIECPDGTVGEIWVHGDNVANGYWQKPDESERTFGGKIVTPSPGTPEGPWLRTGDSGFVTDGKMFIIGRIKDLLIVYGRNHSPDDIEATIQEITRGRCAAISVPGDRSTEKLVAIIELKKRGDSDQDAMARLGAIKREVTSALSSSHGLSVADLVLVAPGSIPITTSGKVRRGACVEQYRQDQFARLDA
# Chain of Protein Wnt-3a (P27467 whole entry): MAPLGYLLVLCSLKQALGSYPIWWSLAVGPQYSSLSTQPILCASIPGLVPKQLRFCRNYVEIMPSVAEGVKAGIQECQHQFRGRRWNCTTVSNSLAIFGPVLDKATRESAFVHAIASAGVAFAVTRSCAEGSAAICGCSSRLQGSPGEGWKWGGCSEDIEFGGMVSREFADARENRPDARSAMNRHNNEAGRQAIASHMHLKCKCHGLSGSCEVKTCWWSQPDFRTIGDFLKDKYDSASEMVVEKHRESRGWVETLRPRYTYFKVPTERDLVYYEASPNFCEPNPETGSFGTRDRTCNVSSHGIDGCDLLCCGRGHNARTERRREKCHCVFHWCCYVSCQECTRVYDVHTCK
# Chain of 72 kDa type IV collagenase (P08253 whole entry): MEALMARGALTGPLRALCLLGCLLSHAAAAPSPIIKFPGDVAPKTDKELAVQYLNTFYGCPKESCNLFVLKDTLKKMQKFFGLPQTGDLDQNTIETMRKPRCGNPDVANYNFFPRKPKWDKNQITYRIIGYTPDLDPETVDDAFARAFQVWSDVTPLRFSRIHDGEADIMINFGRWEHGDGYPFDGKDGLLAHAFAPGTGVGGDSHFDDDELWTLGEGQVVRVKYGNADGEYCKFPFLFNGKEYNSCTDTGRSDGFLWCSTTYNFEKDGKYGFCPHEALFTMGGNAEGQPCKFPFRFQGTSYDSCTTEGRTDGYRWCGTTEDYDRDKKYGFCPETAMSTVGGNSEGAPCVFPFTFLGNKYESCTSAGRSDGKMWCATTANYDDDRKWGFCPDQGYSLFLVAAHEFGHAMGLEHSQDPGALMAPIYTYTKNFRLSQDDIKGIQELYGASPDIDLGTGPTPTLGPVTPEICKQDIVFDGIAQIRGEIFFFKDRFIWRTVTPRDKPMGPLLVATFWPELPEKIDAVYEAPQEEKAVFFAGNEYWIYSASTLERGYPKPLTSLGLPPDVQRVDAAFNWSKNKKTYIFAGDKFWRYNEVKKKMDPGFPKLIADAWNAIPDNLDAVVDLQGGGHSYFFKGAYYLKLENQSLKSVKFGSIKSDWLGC
# Chain of 26S proteasome non-ATPase regulatory subunit 14 (O00487 whole entry): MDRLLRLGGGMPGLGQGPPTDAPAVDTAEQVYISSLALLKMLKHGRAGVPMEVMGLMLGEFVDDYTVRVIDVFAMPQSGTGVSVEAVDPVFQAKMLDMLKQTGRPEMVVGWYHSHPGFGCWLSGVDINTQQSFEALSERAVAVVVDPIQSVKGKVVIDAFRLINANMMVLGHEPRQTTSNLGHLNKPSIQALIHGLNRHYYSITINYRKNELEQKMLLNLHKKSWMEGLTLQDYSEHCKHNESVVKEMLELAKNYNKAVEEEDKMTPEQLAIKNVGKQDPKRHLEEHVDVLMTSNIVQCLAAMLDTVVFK
structure (smiles),measurement,setting,value
COc1ccc2nc3ccccc3nc2c1NC(=O)c1ccc(Br)cc1,EC50,[1],6.66 µM (inconclusive)
same,IC50,[2],10 µM (active)
same,IC50,[3],9.47 µM (active)
same,EC50,[4],6.41 µM (active)
Cc1ccc(N=C(S)N(C)Cc2cn(C)c3ccccc23)cc1,AC50,[5],78.8 µM (active)
Cc1ccc(NC2=NC(=O)/C(=C/c3cccs3)S2)cc1C,IC50,[6],> 100 µM (inactive)
same,IC50,[7],25.9 µM (active)
same,IC50,Prothrombin,37.8 µM (active)
Brc1ccc(-c2cn3c([n+]2-c2ccccc2)SCC3)cc1,IC50,Protein Wnt-3a,17.2 µM (active)
C/C(=N\Nc1nc2ccccc2[nH]1)c1ccccn1,EC50,BJ [8],4.7 µM (active)
same,EC50,cells [9],13.8 µM (active)
same,EC50,[10],0.154 µM (active)
same,EC50,BJ [11],1.38 µM (inconclusive)
same,EC50,BJ [12],0.672 µM (active)
same,EC50,BJ [13],< 0.104 µM (active)
same,EC50,[14],0.107 µM (active)
same,EC50,[15],0.306 µM (active)
same,AC50,INS1,< 0.195 µM (active)
same,EC50,cells [16],6.03 µM (active)
same,EC50,[17],2.24 µM (active)
CCn1c(=O)c(C(=O)CN2CCc3ccccc32)c(N)n(Cc2ccccc2)c1=O,CC50,Vero,> 40 µM (active)
C=C(C(=O)c1ccccc1)C(NC(C)(C)C)c1ccccc1 (configuration not stated),IC50,[18],2.01 µM (active)
